Results reported in patent publication US20250109120A1, “INDOLINE DERIVATIVES FOR TREATMENT AND/OR PREVENTION OF TUMOR OR CELL PROLIFERATIVE AND FIBROSIS DISEASES” (NATIONAL TAIWAN UNIVERSITY, priority 2023, published 2025).

How the values were obtained:
DU145 cells [1] = assay: TGF-β/Smad/RNA polymerase II signaling, western blot, fractionation, immunoprecipitation; format: cell-based, human; settings: 10 μM
Method: Whole-cell lysates were subjected to western blotting with the indicated antibodies. […] The proteins in the cytosol and nucleus were detected by western blotting analysis, and the proteins expression in the nucleus were quantified. […] The results are shown as the mean±SEM from at least three independent experiments (*p<0.05, **p<0.01, and ***p<0.001 vs. control group; #p<0.05, ##p<0.01, and ###p<0.001 vs. TGF-β1 treatment group; § p<0.05, §§ p<0.01 vs. indicated group).
(§1) The cells were incubated in lysis buffer for 10 min at 4° C., scraped off, incubated on ice for an additional 10 min and then centrifuged at 17,000 g for 30 min at 4° C. Protein samples were electrophoresed on SDS-PAGE gels, transferred to PVDF membranes and blocked with 5% fat-free milk in PBS for 30 min at room temperature. Immunoblotting was performed overnight with primary antibodies in PBS at 4° C., followed by incubation with HRP-conjugated secondary antibodies for 1 h at room temperature. Bound antibodies will be measured using an ECL reagent and exposed to a photographic film. In the immunoprecipitation assay, cell lysates were immunoprecipitated with 1 μg of antibody and A/G agarose beads overnight at 4° C. After washing the precipitated beads three times with 1 mL ice-cold cell lysis buffer, bound immune complexes were separated by 10% SDS-PAGE and analyzed with immunoblotting.

DU145 cells [2] = assay: LiCl-induced β-catenin signaling, western blot; format: cell-based, human; settings: LiCl 20 mM; senexin A 10 μM
Method: Inhibitory phosphorylation of GSK3β was evaluated through western blotting. […] Whole-cell lysates were subjected to western blotting with the indicated antibodies. FIGS. 11J-11K show the comparison of basal activities of the Akt/GSK3β axis between PC-3 and DU145 cells. […] The results are shown as the mean±SEM from at least three independent experiments (*p<0.05, **p<0.01, ***p<0.001 vs. control group; #p<0.05, ##p<0.01, and ###p<0.001 vs. relevant control).
as §1

[3] = test system: CDH1 reporter in DU145 cells; assay: 7TFP CDH1 reporter luciferase assay; format: cell-based, human; settings: TGF-β1 10 ng/mL, 24 h
DU145 cells [4] = assay: MTT cell cytotoxicity assay; format: cell-based, human
Method: (§2) FIGS. 2A-2D show the evaluation of CDK8 inhibition by compound k. […] Cell viability was measured by MTT assay, and the 50% inhibitory concentration (IC50) values were calculated by a sigmoidal dose-response equation. […] Whole-cell lysates were subjected to western blotting with the indicated antibodies. The results are shown as the mean t SEM from at least three independent experiments (*p<0.05, **p<0.01, and ***p<0.001 vs. control group; #p<0.05 vs. relevant control).
(§3) Cell cytotoxicity was evaluated using the MTT assay. […] Then, 0.5 mg/mL MTT was added, and the plates were incubated for an additional 2 h at 37° C. The cells were then pelleted and lysed in 100 μL of dimethyl sulfoxide, and the absorbance at 550 nm was measured with a microplate reader.

PC-3 cells [5] = assay: MTT cell cytotoxicity assay; format: cell-based, human
Method: as §2, §3

other CDKs and kinases = assay: Kinase selectivity panel of 54 kinases (SelectScreen); format: biochemical; settings: 150 nM, 54-kinase panel
Method: Compounds were tested for kinase inhibitory activity using the Thermo Fisher SelectScreen service (www.thermofisher.com/selectscreen). For CDK8, the LanthaScreen Eu Binding Assay was used. Briefly, the assay employed utilizes a fluorescent tracer to a given kinase. This is used to detect the addition of an anti-tag antibody. When the tracer and antibody bind to the targeted kinase, the Forster resonance energy transfer is measured. When a kinase inhibitor is added to the assay, the tracer/kinase binding will be disrupted, producing low FRET detection and indicating kinase inhibitory activity. Evaluation of kinase activity of additional kinase targets utilized the LanthaScreen binding assay or the Z′-Lyte activity assay provided by Thermo Fisher SelectScreen service. The IC50 values were determined using sequential doses, and the inhibition curves were provided by Thermo Fisher Scientific.
Compound k was evaluated for kinase selectivity. […] The cytotoxicity of compound k was then assessed in DU145 and PC-3 cells, human prostate cancer cell lines isolated from patients with brain and bone metastasis, respectively. […] To further examine whether compound k still inhibited CDK8/19 inhibition in cells, we assessed whether compound treatment in DU145/PC-3 androgen-independent prostate cancer cells could inhibit STAT1-S727 phosphorylation. […]

prostate cancer cells = assay: Transwell migration assay; format: cell-based, human; settings: both prostate cancer cells
PC-3 cells [6] = assay: PC-3 SCID mouse model; format: in vivo, mice; settings: oral, 50 mg/kg q.d., 31 days
Method: PC-3 cells (1×10^7 cells) were injected subcutaneously into the flanks of 7-week-old male SCID mice and treated with vehicle or compound k (50 mg/kg) q.d. for 31 days. […] Tumors were excised from each mouse after a 31-day treatment. […] The length is represented by the scale bar as indicated.
as §1
Tissue sections underwent dewaxing and rehydration. Antigen retrieval was performed by autoclaving the slides in Trilogy solution (Cell Marque, Hot Springs, AR) at 121° C. for 10 min. The slides were blocked with 3% H2O2 and 5% fetal bovine serum, incubated with primary antibodies at 4° C. overnight, and then treated with polymer-HRP reagent (Dako Cytomation, Glostrup, Denmark). activity Peroxidase was visualized using diamino-benzidine tetrahydrochloride solution (DAKO), and sections were counterstained with hematoxylin. Dark brown nuclear staining was defined as positive, no staining was defined as negative.

`CNC(=O)c1cc(Oc2ccc(NS(=O)(=O)c3ccc4c(c3)C(=C(C)C)C(=O)N4)c(F)c2)ccn1` [Compound k, 4-(3-Fluoro-4-((2-oxo-3-(propan-2-ylidene)indoline)-5-sulfonamido)phenoxy)-N-methylpicolinamide] was tested, and the “binding of CDK8 to RNA polymerase II (Ser2/5), Smad3 and Pin1 (immunoprecipitation)” value (DU145 cells [1]; TGF-β1 10 ng/mL) was “inhibited”, the “phosphorylation of Smad3 and RNA polymerase II in nuclear fraction” value (DU145 cells [1]; TGF-β1 10 ng/mL 1 h) was “markedly suppressed” and the “expression of mesenchymal markers (N-cadherin, Snail)” value (DU145 cells [1]; TGF-β1 10 ng/mL 24 h) was “significantly downregulated”. The “levels of active form of β-catenin and Snail” value (DU145 cells [2]) was “reduced the levels”, the “CDH1-driven luciferase expression reduced by TGF-β1” value [3] was “reversed this effect to the control level” and the IC50 (DU145 cells [4]; DU145, 24 h) was greater than 30 µM. The IC50 (DU145 cells [4]; DU145, 72 h) was greater than 30 µM, the IC50 (PC-3 cells [5]; PC-3, 24 h) was greater than 30 µM and the IC50 (PC-3 cells [5]; PC-3, 72 h) was greater than 30 µM. The “effect on other CDKs and kinases” value (other CDKs and kinases) was “no significant effect”, the “TGF-β1-triggered cell migration (transwell)” value (prostate cancer cells) was “significantly inhibited” and the “binding of CDK8 and p-Smad3 (Thr179), tumor immunoprecipitation” value (PC-3 cells [6]) was “markedly inhibited”. The body weight changes (PC-3 cells [6]) was “no apparent body weight changes”, the “expression of EMT proteins, α-SMA, p-Smad3 (Thr179), active β-catenin, p-STAT1 Ser727 in tumor immunoblots” value (PC-3 cells [6]) was “markedly inhibited” and the “interaction of CDK8 and MED12, tumor immunoprecipitation” value (PC-3 cells [6]) was “did not affect”. The “tumor margin, H&E staining” value (PC-3 cells [6]) was “distinct boundary” and the “vimentin, N-cadherin and Snail levels, IHC staining of tumors” value (PC-3 cells [6]) was “significantly decreased”.
